The source of these data is ChEMBL document CHEMBL5338722, “Optical-Controlled Kinetic Switch: Fine-Tuning of the Residence Time of an Antagonist Binding to the Vasopressin V2 Receptor in In Vitro, Ex Vivo, and In Vivo Models of ADPKD” (J Med Chem, 2023).

Structures are written as SMILES. pKi: −log10 of the molar value. Calls of active or inactive are those of the source. No cut-off for these calls is given here. A value given as a limit tells only on which side of the number the result lay.

Data set [1] deals with T1, Vasopressin V2 receptor (Homo sapiens, UniProt P30518). Description: Displacement of conivaptan-red fluorescent probe from SNAP-tagged human vasopressin V2 receptor expressed in HEK293 cells compound pre-illuminated for 10 mins with light at 365 nm and further incubated for 1 hr by HTRF assay. It is filed as cell-based.
Data set [2] addresses T1, Vasopressin V2 receptor. Briefly: Displacement of conivaptan-red fluorescent probe from SNAP-tagged human vasopressin V2 receptor expressed in HEK293 cells compound pre-illuminated for 10 mins with light at 435 nm and further incubated for 1 hr by HTRF assay. It counts as cell-based. (In general: In TR-FRET formats the signal depends on donor and acceptor labels being close together.)

Data set [3] has as its target T1, Vasopressin V2 receptor. Briefly: Displacement of conivaptan-red fluorescent probe from SNAP-tagged human vasopressin V2 receptor expressed in HEK293 cells at 10 uM compound pre-illuminated for 10 mins with light at 365 nm and further incubated for 1 hr by HTRF assay relative to control. It counts as cell-based. To be noted: filed as antagonist.
For data set [4], the target named is T1, Vasopressin V2 receptor. Briefly: Displacement of conivaptan-red fluorescent probe from SNAP-tagged human vasopressin V2 receptor expressed in HEK293 cells assessed as leftward shift in competition curve at 0.1 uM compound pre-illuminated for 10 mins with light at 365 nm and measured for 10 to 60 mins by dual-point competition association assay. It counts as cell-based. To be noted: filed as antagonist, time 10-60 min.

For data set [5], the target named is T1, Vasopressin V2 receptor. Description: Antagonist activity at human vasopressin V2 receptor expressed in CHO cells assessed as inhibition of vasopressin induced cAMP production at 10 times Ki preincubated for 30 mins followed by two consecutive washouts and irradiated with light at 365 nm during two washouts. It counts as functional, cell-based. For orientation: cAMP levels reflect the balance of adenylyl cyclase and phosphodiesterase activity.

Data set [6] concerns the target T1, Vasopressin V2 receptor. Briefly: Antagonist activity at human vasopressin V2 receptor expressed in CHO cells assessed as inhibition of vasopressin induced cAMP production at 10 times Ki preincubated for 30 mins followed by two consecutive washouts and irradiated with light at 365 nm in first 30 mins of washout and with light at 435 nm in second 30 mins of washout. It is filed as functional, cell-based.

Data set [7] deals with Serine/threonine-protein kinase mTOR (Homo sapiens) (UniProt P42345). Description: Inhibition of mTOR (unknown origin) assessed as inhibition of p70S6K phosphorylation at 10 times Ki preincubated for 30 mins followed by two consecutive washouts and irradiated with light at 365 nm during two washouts by Western blot analysis. Background: A western blot detects proteins with antibodies after separation by electrophoresis.

For data set [8], the target named is T1, Vasopressin V2 receptor. Briefly: Antagonist activity at human vasopressin V2 receptor expressed in CHO cells assessed as inhibition of vasopressin induced cAMP production at 10 times Ki preincubated for 30 mins followed by two consecutive washouts and irradiated with light at 435 nm during two washouts. It counts as functional, cell-based.
Data set [9] deals with Serine/threonine-protein kinase mTOR (Homo sapiens) (UniProt P42345). Description: Inhibition of mTOR (unknown origin) assessed as inhibition of p70S6K phosphorylation at 10 times Ki preincubated for 30 mins followed by two consecutive washouts and irradiated with light at 365 nm in first 30 mins of washout and with light at 435 nm in second 30 mins of washout by Western blot analysis.

Data set [10] has as its target T1, Vasopressin V2 receptor. Description: Displacement of conivaptan-red fluorescent probe from SNAP-tagged human vasopressin V2 receptor expressed in HEK293 cells assessed as on-rate constant at 0.1 uM compound pre-illuminated for 10 mins with light at 365 nm by dual-point competition association assay. The following applies: filed as antagonist. It counts as cell-based.

Data set [11] has as its target T1, Vasopressin V2 receptor. Briefly: Antagonist activity at human vasopressin V2 receptor expressed in CHO cells assessed as inhibition of AVP-induced cAMP production at 1 uM preincubated for 30 mins followed by two consecutive washouts and irradiated with light at 365 nm during two washouts. It is filed as functional, cell-based. The following applies: filed as antagonist.

The subject of data set [12] is Mus musculus. Description: In vivo inhibition of renal cystogenesis in Pkd1 knock-out autosomal dominant polycystic kidney disease mouse model assessed as reduction in kidney size with fewer cysts at 5 mg/kg, sc administered once daily for 7 days compound pre-irradiated with light at 365 nm prior to administration by Hematoxylin-eosin staining based analysis. It is filed as functional, organism-based. The following applies: time 7.0 day.

The nature of data set [13]: Drug uptake in Sprague-Dawley rat kidney at 0.1 uM treated for 30 mins followed by extensive drug wash-out for 4 hrs by LC-MS analysis. It counts as ADME, tissue-based. To be noted: in vivo, 0.5 h.
The subject of data set [14] is Kidney. Description: Ex vivo inhibition of renal cystogenesis in ADPKD C57BL/6 mouse kidney assessed as suppression of 8-Br-cAMP-induced cyst development at 10 uM measured after 4 days in presence of 8-Br-cAMP by inverted microscopic analysis. It counts as functional, tissue-based. To be noted: time 4.0 day.
Data set [15] concerns the target T1, Vasopressin V2 receptor. Briefly: Antagonist activity at human vasopressin V2 receptor expressed in CHO cells assessed as inhibition of vasopressin-induced cAMP production at 10 times Ki preincubated for 30 mins followed by two consecutive washouts and irradiated with light at 435 nm in first 30 mins of washout and with light at 365 nm in second 30 mins of washout. It is filed as functional, cell-based. To be noted: filed as antagonist.

The nature of data set [16]: In vivo inhibition of renal cystogenesis in Pkd1 knock-out autosomal dominant polycystic kidney disease mouse model assessed as disease progression at 5 mg/kg, sc administered once daily for 7 days compound pre-irradiated with light at 365 nm prior to administration. It counts as functional. To be noted: time 7 day. Further details: scale not given: the % may be the effect or the level left.

For data set [17], the target named is Vasopressin V1a receptor (Homo sapiens) (UniProt P37288). Description: Displacement of [3H]vasopressin from human V1A receptor expressed in CHO cell membranes at 1 uM compound pre-illuminated for 10 mins with light at 365 nm by radioligand displacement assay relative to control. The following applies: Membrane.
Data set [18] concerns the target T1, Vasopressin V2 receptor. Briefly: Displacement of conivaptan-red fluorescent probe from SNAP-tagged human vasopressin V2 receptor expressed in HEK293 cells assessed as kinetic rate index by measuring ratio of binding of labeled probe at 15 mins to 60 mins at IC50 compound pre-illuminated for 10 mins with light at 365 nm by dual-point competition association assay. The following applies: filed as antagonist. It counts as cell-based.

Data set [19] deals with T1, Vasopressin V2 receptor. Briefly: Antagonist activity at human vasopressin V2 receptor expressed in CHO cells assessed as inhibition of cAMP production. It counts as functional, cell-based. To be noted: filed as antagonist.
In data set [20] the target is T1, Vasopressin V2 receptor. Description: Displacement of conivaptan-red fluorescent probe from SNAP-tagged human vasopressin V2 receptor expressed in HEK293 cells assessed as residence time at 0.1 uM compound pre-illuminated for 10 mins with light at 365 nm by dual-point competition association assay. It counts as cell-based. The following applies: filed as antagonist.

Data set [21] has as its target Serine/threonine-protein kinase mTOR (Homo sapiens) (UniProt P42345). Briefly: Inhibition of mTOR (unknown origin) assessed as inhibition of p70S6K phosphorylation at 10 times Ki preincubated for 30 mins followed by two consecutive washouts and irradiated with light at 435 nm in first 30 mins of washout and with light at 365 nm in second 30 mins of washout by Western blot analysis.

Data set [22] shares this target. Briefly: Inhibition of mTOR (unknown origin) assessed as inhibition of p70S6K phosphorylation at 10 times Ki preincubated for 30 mins followed by two consecutive washouts and irradiated with light at 435 nm during two washouts by Western blot analysis.
Data set [23] has as its target T1, Vasopressin V2 receptor. Briefly: Displacement of conivaptan-red fluorescent probe from SNAP-tagged human vasopressin V2 receptor expressed in HEK293 cells assessed as off-rate constant at 0.1 uM compound pre-illuminated for 10 mins with light at 365 nm by dual-point competition association assay. It is filed as cell-based. To be noted: filed as antagonist.
For data set [24], the system named is Mus musculus. Description: In vivo inhibition of renal cystogenesis in Pkd1 knock-out autosomal dominant polycystic kidney disease mouse model assessed as reduction in cysts area at 5 mg/kg, sc administered once daily for 7 days compound pre-irradiated with light at 365 nm prior to administration by Hematoxylin-eosin staining based analysis. It is filed as functional, organism-based. The following applies: time 7.0 day.

Data set [25] deals with Kidney. Description: Ex vivo target occupancy at vasopressin V2 receptor in Sprague-Dawley rat kidney assessed as endurance in retention time by measuring half life at 0.1 uM treated for 30 mins followed by extensive drug wash-out for 240 mins by LC-MS analysis. It counts as functional, tissue-based.
Data set [26] deals with Mus musculus. Briefly: In vivo inhibition of renal cystogenesis in Pkd1 knock-out autosomal dominant polycystic kidney disease mouse model assessed as reduction in kidney size at 5 mg/kg, sc administered once daily for 7 days compound pre-irradiated with light at 365 nm prior to administration. The following applies: time 7.0 day. It counts as functional, organism-based.

Data set [27] addresses T1, Vasopressin V2 receptor. Description: Displacement of conivaptan-red fluorescent probe from SNAP-tagged human vasopressin V2 receptor expressed in HEK293 cells assessed as on-rate constant at IC50 by TR-FRET based competition association assay. The following applies: filed as antagonist. It counts as cell-based.
The target in data set [28] is T1, Vasopressin V2 receptor. Briefly: Displacement of conivaptan-red fluorescent probe from SNAP-tagged human vasopressin V2 receptor expressed in HEK293 cells assessed as off-rate constant at IC50 by TR-FRET based competition association assay. It is filed as cell-based. To be noted: filed as antagonist.
Data set [29] concerns the target T1, Vasopressin V2 receptor. Briefly: Displacement of conivaptan-red fluorescent probe from SNAP-tagged human vasopressin V2 receptor expressed in HEK293 cells assessed as residence time at IC50 by TR-FRET based competition association assay. To be noted: filed as antagonist. It counts as cell-based.

T1 sequence (P30518 whole entry): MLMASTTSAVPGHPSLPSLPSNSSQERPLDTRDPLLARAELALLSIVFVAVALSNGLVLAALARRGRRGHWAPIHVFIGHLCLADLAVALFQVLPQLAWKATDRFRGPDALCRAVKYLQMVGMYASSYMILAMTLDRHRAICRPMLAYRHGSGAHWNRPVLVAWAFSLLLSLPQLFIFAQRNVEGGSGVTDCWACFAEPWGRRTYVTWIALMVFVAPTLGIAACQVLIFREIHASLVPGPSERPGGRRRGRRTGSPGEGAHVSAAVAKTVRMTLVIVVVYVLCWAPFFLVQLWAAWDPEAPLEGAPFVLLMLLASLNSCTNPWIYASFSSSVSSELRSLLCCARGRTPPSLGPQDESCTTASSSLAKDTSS
Chain of Vasopressin V1a receptor (Homo sapiens) (P37288 whole entry, looked up): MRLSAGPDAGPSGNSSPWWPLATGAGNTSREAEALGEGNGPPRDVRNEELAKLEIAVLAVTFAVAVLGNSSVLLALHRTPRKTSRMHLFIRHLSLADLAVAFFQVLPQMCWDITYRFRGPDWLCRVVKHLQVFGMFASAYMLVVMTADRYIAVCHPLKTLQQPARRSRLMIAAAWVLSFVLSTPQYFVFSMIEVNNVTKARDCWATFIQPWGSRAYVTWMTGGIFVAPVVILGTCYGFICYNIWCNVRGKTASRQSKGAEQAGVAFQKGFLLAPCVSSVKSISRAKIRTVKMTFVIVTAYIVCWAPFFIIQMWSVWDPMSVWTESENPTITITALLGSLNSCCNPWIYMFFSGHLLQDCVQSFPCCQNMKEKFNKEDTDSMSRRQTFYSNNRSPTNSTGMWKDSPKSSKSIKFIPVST

As a reminder, the pKi is the Ki on a negative log10 scale, so that one unit is a factor of ten. Consider `O=C(c1ccc(/N=N\c2ccc(C(F)(F)F)cc2)cc1Cl)N1Cc2cccn2Cc2ccccc21`, for which the pKi at Vasopressin V2 receptor [1] was 5.28.

With `O=C(c1ccc(/N=N/c2ccc(C(F)(F)F)cc2)cc1Cl)N1Cc2cccn2Cc2ccccc21`, the pKi at Vasopressin V2 receptor [2] is 6.23.

Turning to `O=C(c1ccc(/N=N/c2ccc(F)cc2)cc1Cl)N1Cc2cccn2Cc2ccccc21`, the pKi on Vasopressin V2 receptor [2] is 6.07.

Broadly, the inhibition is the percentage by which the read-out fell short of the control. `O=C(c1ccc(/N=N\c2ccc(-c3ccccc3)cc2)cc1Cl)N1Cc2cccn2Cc2ccccc21` yielded an inhibition on Vasopressin V2 receptor [3] of 51%.

`Cc1ccc(/N=N\c2ccc(C(=O)N3Cc4cccn4Cc4ccccc43)c(Cl)c2)cc1` showed a negative logarithm of the Ki (pKi) at Vasopressin V2 receptor [1] of 7.40. In addition, the outcome at Vasopressin V2 receptor [4] was Active. Further, the inhibition result (at Vasopressin V2 receptor [5] (filed as antagonist); in [7]; on Vasopressin V2 receptor [11]; in the data set with Mus musculus [12]; in the data set on Kidney [14]; at Vasopressin V2 receptor [15]) was “Active” each time. In addition, the inhibition entry at Vasopressin V2 receptor [19], in the data set with Mus musculus [24] and in the data set on Mus musculus [26] was “Active” each time. In addition, the inhibition result (at Vasopressin V2 receptor [6]; at Vasopressin V2 receptor [8]; in data set [9]; in [21]; in data set [22]) was “inactive” throughout. For the same molecule, the K was 6.6 10^5/M/min at Vasopressin V2 receptor [10] and 0.017 min⁻¹ on Vasopressin V2 receptor [23]. This molecule came in with a Drug uptake in data set [13] of 26 nM. In [16], the Activity turned out to be 14.6%. Moreover, the inhibition in data set [17] was less than 40%. In addition, the Ratio on Vasopressin V2 receptor [18] was found to be 1.72. In addition, the TIME on Vasopressin V2 receptor [20] was determined as 1.07 h. In the data set on Kidney [25], the T1/2 was 1.82 h.

In the case of `Cc1cccc(/N=N/c2ccc(C(=O)N3Cc4cccn4Cc4ccccc43)c(Cl)c2)c1`, the pKi at Vasopressin V2 receptor [2] was 6.45.

On Vasopressin V2 receptor [2], `Cc1ccc(F)cc1/N=N/c1ccc(C(=O)N2Cc3cccn3Cc3ccccc32)c(Cl)c1` showed a pKi of 6.24.

As for `Cc1ccc(F)cc1C(=O)Nc1ccc(C(=O)N2Cc3cccn3Cc3ccccc32)c(Cl)c1`, the inhibition entry on Vasopressin V2 receptor [5] and at Vasopressin V2 receptor [8] was “inactive” throughout. Further, the K at Vasopressin V2 receptor [27] is 4.6 10^7/M/min; on Vasopressin V2 receptor [28], 0.06 min⁻¹. Also, the TIME at Vasopressin V2 receptor [29] came out at 0.3 h.

Molecule `O=C(c1ccc(/N=N\c2ccc(F)cc2)cc1Cl)N1Cc2cccn2Cc2ccccc21` showed a pKi at Vasopressin V2 receptor [1] of 6.54.

Take `Cc1ccccc1/N=N/c1ccc(C(=O)N2Cc3cccn3Cc3ccccc32)c(Cl)c1`: the pKi at Vasopressin V2 receptor [2] was 6.36.

As to `O=C(c1ccc(/N=N/c2ccccc2-c2ccccc2)cc1Cl)N1Cc2cccn2Cc2ccccc21`, the pKi on Vasopressin V2 receptor [2] was 6.55.
